23 compounds from patent US20110178104A1, “Anti-Heparin Compounds” (POLYMEDIX INC., priority 2010, published 2011) can be followed below.

Assay [1] relates to Unfractionated heparin. Description: aPTT clotting assay, UFH 0.4 U/mL in plasma (Example 10). It counts as biochemical. Conditions: unfractionated heparin 0.4 U/mL in plasma; aPTT clotting. Here is the method: aPTT clotting Assay: Unfractionated heparin was mixed with plasma at a final concentration of 0.4 U/mL (or concentration which increases aPTT time to between 120 and 300 seconds). […] The ACL Elite Hemostasis analyzer (Beckman Coulter™) was used to add aPTT reagent (HemosIL SynthASil) to supplemented plasma. Clotting was initiated by addition of CaCl2 and time to clot was recorded.

Assay [2] concerns fondaparinux. Description: FXa amidolytic assay (Example 10), fondaparinux. The note with it: read-out: Fondap FXa EC50; fondaparinux 0.02 μg/mL; human antithrombin, bovine Factor Xa.
Experimental: (§1) Two μl of test agent are added (range between 0.01 and 23 ug/ml) and incubated for 5 minutes at 23° C. Bovine Factor Xa was added to a final concentration of 0.636 nkat/mL and incubated for a further 10 minutes at 23° C.
For assay [3], the system named is enoxaparin. Nature of the assay: FXa amidolytic assay (Example 10), enoxaparin. Conditions: read-out: Enox FXa EC50; enoxaparin 0.1 ug/ml; human antithrombin, bovine Factor Xa.
Experimental: as §1
Assay [4] concerns tinzaparin. Nature of the assay: FXa amidolytic assay (Example 10), tinzaparin. Conditions: read-out: Tinzap FXa EC50; tinzaparin 0.1 ug/ml; human antithrombin, bovine Factor Xa.
Experimental: as §1

By EC50 is commonly meant the concentration giving half of the maximal effect. For the compound `COc1ccc(NC(=O)[C@H](CCCNC(=N)N)NC(=O)c2cc(NC(=O)[C@H](CCCNC(=N)N)NC(=O)c3cc(NC(=O)[C@H](CCCNC(=N)N)NC(=O)c4cc(NC(=O)[C@@H](N)CCCNC(=N)N)ccc4OC)ccc3OC)ccc2OC)cc1C(=O)NCCC(=O)O` [Compound 285], the EC50 in assay [1] was found to be 2150 nM; in assay [2], 799 nM; in assay [3], 169 nM; in assay [4], 151 nM.

Turning to `COc1ccc(NC(=O)[C@H](CCCNC(=N)N)NC(=O)c2cc(NC(=O)[C@H](CCCNC(=N)N)NC(=O)c3cc(NC(=O)[C@@H](N)CCCNC(=N)N)ccc3OC)ccc2OC)cc1C(=O)N[C@@H](CCCNC(=N)N)C(=O)Nc1ccc(OCC(=O)O)c(C(N)=O)c1` [Compound 286], the EC50 in assay [1] is 1900 nM; in assay [2] it was 526 nM; in assay [3], 118 nM; in assay [4], 104 nM.

`COc1ccc(NC(=O)[C@H](CCCNC(=N)N)NC(=O)c2cc(NC(=O)[C@H](CCCNC(=N)N)NC(=O)c3cc(NC(=O)[C@H](CCCNC(=N)N)NC(=O)c4cc(NC(=O)[C@@H](N)CCCNC(=N)N)ccc4OCC(=O)O)ccc3OC)ccc2OC)cc1C(N)=O` [Compound 289]: the EC50 in assay [1] turned out to be 1760 nM; in assay [2], 508 nM; in assay [3], 133 nM; in assay [4], 108 nM.

For `COc1ccc(NC(=O)[C@H](CCCCN)NC(=O)c2cc(NC(=O)[C@H](CCCCN)NC(=O)c3cc(NC(=O)[C@H](CCCCN)NC(=O)c4cc(NC(=O)[C@H](CCCCN)NC(=O)CC(=O)O)ccc4OC)ccc3OC)ccc2OC)cc1C(N)=O` [Compound 290], the EC50 in assay [1] turned out to be 2270 nM; in assay [2], 1880 nM; in assay [3] it was 318 nM; in assay [4], 212 nM.

Turning to `COc1ccc(NC(=O)[C@@H](CCCNC(=N)N)NC(=O)c2cc(NC(=O)[C@@H](CCCNC(=N)N)NC(=O)c3cc(NC(=O)[C@@H](CCCNC(=N)N)NC(=O)c4cc(NC(C)=O)ccc4OC)ccc3OC)ccc2OC)cc1C(=O)NCC(=O)O` [Compound 294], the EC50 in assay [1] is 2740 nM; in assay [2], 244 nM; in assay [3], 264 nM; in assay [4], 264 nM.

For the compound `COc1ccc(NC(=O)[C@@H](CCCNC(=N)N)NC(=O)c2cc(NC(=O)[C@@H](CCCNC(=N)N)NC(=O)c3cc(NC(=O)[C@@H](CCCNC(=N)N)NC(=O)c4cc(NC(C)=O)ccc4OC)ccc3OC)ccc2OC)cc1C(=O)NCCC(=O)O` [Compound 295], the EC50 is 3990 nM in assay [1], 387 nM in assay [2], 312 nM in assay [3] and 325 nM in assay [4].

On to `COc1ccc(NC(=O)[C@@H](CCCNC(=N)N)NC(=O)c2cc(NC(=O)[C@@H](CCCNC(=N)N)NC(=O)c3cc(NC(=O)[C@@H](CCCNC(=N)N)NC(=O)c4cc(NC(C)=O)ccc4OC)ccc3OC)ccc2OC)cc1C(=O)N[C@@H](Cc1ccc(O)cc1)C(=O)O` [Compound 296], for which the EC50 in assay [1] was 15300 nM; in assay [2], 437 nM; in assay [3] it was 286 nM; in assay [4], 296 nM.

As to `COc1ccc(NC(=O)[C@H](CCCNC(=N)N)NC(=O)c2cc(NC(=O)[C@H](CCCNC(=N)N)NC(=O)c3cc(NC(=O)[C@H](CCCNC(=N)N)NC(=O)c4cc(NC(C)=O)ccc4OC)ccc3OC)ccc2OC)cc1C(=O)NCC(=O)O` [Compound 299], the EC50 in assay [1] is 2900 nM; in assay [2], 265 nM; in assay [3], 243 nM; in assay [4] it was 242 nM.

Regarding `COc1ccc(NC(=O)[C@H](CCCNC(=N)N)NC(=O)c2cc(NC(=O)[C@H](CCCNC(=N)N)NC(=O)c3cc(NC(=O)[C@H](CCCNC(=N)N)NC(=O)c4cc(NC(C)=O)ccc4OC)ccc3OC)ccc2OC)cc1C(=O)NCCC(=O)O` [Compound 300], the EC50 in assay [1] is 3430 nM; in assay [2], 462 nM; in assay [3], 272 nM; in assay [4], 311 nM.

In the case of `COc1ccc(NC(=O)[C@H](CCCNC(=N)N)NC(=O)c2cc(NC(=O)[C@H](CCCNC(=N)N)NC(=O)c3cc(NC(=O)[C@H](CCCNC(=N)N)NC(=O)c4cc(NC(C)=O)ccc4OC)ccc3OC)ccc2OC)cc1C(=O)N[C@@H](Cc1ccc(O)cc1)C(=O)O` [Compound 301], the EC50 in assay [1] came out at 6080 nM; in assay [2], 295 nM; in assay [3], 276 nM; in assay [4], 278 nM.

Take `COc1ccc(NC(C)=O)cc1C(=O)N[C@@H](CCCNC(=N)N)C(=O)Nc1ccc(OC)c(C(=O)N[C@@H](CCCNC(=N)N)C(=O)Nc2ccc(OC)c(C(=O)N[C@@H](CCCNC(=N)N)C(=O)Nc3ccc(OC)c(C(=O)N[C@H](Cc4ccc(O)cc4)C(=O)O)c3)c2)c1` [Compound 302]: the EC50 in assay [1] came to 10600 nM; in assay [2], 491 nM; in assay [3], 298 nM; in assay [4] it was 278 nM.

Regarding `COc1ccc(NC(=O)[C@H](CCC(=O)O)NC(=O)c2cc(NC(=O)[C@H](CCCCN)NC(=O)c3cc(NC(=O)[C@H](CCCCN)NC(=O)c4cc(NC(=O)[C@@H](N)CCCCN)ccc4OC)ccc3OC)ccc2OC)cc1C(N)=O` [Compound 315], the half-maximal effective concentration (EC50) is 2050 nM in assay [1], over 10000 nM in assay [2], 1790 nM in assay [3] and 492 nM in assay [4].

On to `COc1ccc(NC(=O)[C@H](CCCCN)NC(=O)c2cc(NC(=O)[C@H](CCC(=O)O)NC(=O)c3cc(NC(=O)[C@H](CCCCN)NC(=O)c4cc(NC(=O)[C@@H](N)CCCCN)ccc4OC)ccc3OC)ccc2OC)cc1C(N)=O` [Compound 316], for which the EC50 in assay [1] was 2040 nM; in assay [2], 1750 nM; in assay [3], 329 nM; in assay [4] it was 223 nM.

In the case of `COc1ccc(NC(=O)[C@H](CCCCN)NC(=O)c2cc(NC(=O)[C@H](CCCCN)NC(=O)c3cc(NC(=O)[C@H](CCCCN)NC(=O)c4cc(NC(=O)[C@@H](N)CCC(=O)O)ccc4OC)ccc3OC)ccc2OC)cc1C(N)=O` [Compound 318], the EC50 in assay [1] was determined as 1410 nM; in assay [2], 3050 nM; in assay [3] it was 407 nM; in assay [4] it was 261 nM.

For `COc1ccc(NC(=O)[C@@H](CCC(=O)O)NC(=O)c2cc(NC(=O)[C@@H](CCCNC(=N)N)NC(=O)c3cc(NC(=O)[C@@H](CCCNC(=N)N)NC(=O)c4cc(NC(=O)[C@H](N)CCCNC(=N)N)ccc4OC)ccc3OC)ccc2OC)cc1C(N)=O` [Compound 319], the EC50 in assay [1] was 2440 nM; in assay [2], 1050 nM; in assay [3], 276 nM; in assay [4] it was 178 nM.

For `COc1ccc(NC(=O)[C@@H](CCCNC(=N)N)NC(=O)c2cc(NC(=O)[C@@H](CCC(=O)O)NC(=O)c3cc(NC(=O)[C@@H](CCCNC(=N)N)NC(=O)c4cc(NC(=O)[C@H](N)CCCNC(=N)N)ccc4OC)ccc3OC)ccc2OC)cc1C(N)=O` [Compound 320], the concentration giving a half-maximal response (EC50) is 2420 nM in assay [1], 4890 nM in assay [2], 901 nM in assay [3] and 285 nM in assay [4].

Take `COc1ccc(NC(=O)[C@H](CCC(=O)O)NC(=O)c2cc(NC(=O)[C@H](CCCNC(=N)N)NC(=O)c3cc(NC(=O)[C@H](CCCNC(=N)N)NC(=O)c4cc(NC(=O)[C@@H](N)CCCNC(=N)N)ccc4OC)ccc3OC)ccc2OC)cc1C(N)=O` [Compound 323]: the EC50 in assay [1] was 2960 nM; in assay [2], 1160 nM; in assay [3] it was 326 nM; in assay [4], 250 nM.

Turning to `COc1ccc(NC(=O)[C@H](CCCNC(=N)N)NC(=O)c2cc(NC(=O)[C@H](CCC(=O)O)NC(=O)c3cc(NC(=O)[C@H](CCCNC(=N)N)NC(=O)c4cc(NC(=O)[C@@H](N)CCCNC(=N)N)ccc4OC)ccc3OC)ccc2OC)cc1C(N)=O` [Compound 324], the EC50 in assay [1] amounted to 2930 nM; in assay [2] it was 3840 nM; in assay [3], 784 nM; in assay [4], 438 nM.

Regarding `COc1ccc(NC(=O)[C@H](CCCNC(=N)N)NC(=O)c2cc(NC(=O)[C@H](CCCNC(=N)N)NC(=O)c3cc(NC(=O)[C@H](CCCNC(=N)N)NC(=O)c4cc(NC(=O)[C@@H](N)CCC(=O)O)ccc4OC)ccc3OC)ccc2OC)cc1C(N)=O` [Compound 326], the EC50 stood at 1990 nM in assay [1], 549 nM in assay [2], 289 nM in assay [3] and 234 nM in assay [4].

Regarding `COc1ccc(NC(=O)[C@H](CCCCN)NC(=O)c2cc(NC(=O)[C@H](CCCCN)NC(=O)c3cc(NC(=O)[C@H](CCCCN)NC(=O)c4cc(N)ccc4OC)ccc3OC)ccc2OC)cc1C(N)=O` [Compound 327], the EC50 came out at 1930 nM in assay [1], 6770 nM in assay [2], 1030 nM in assay [3] and 470 nM in assay [4].

Turning to `COc1ccc(NC(=O)[C@H](CCCCN)NC(=O)c2cc(NC(=O)[C@H](CCCCN)NC(=O)c3cc(NC(=O)[C@H](CCCCN)NC(=O)c4cc(NC(C)=O)ccc4OC)ccc3OC)ccc2OC)cc1C(N)=O` [Compound 328], the EC50 in assay [1] turned out to be 1880 nM; in assay [2], 2330 nM; in assay [3] it was 448 nM; in assay [4] it was 257 nM.

With `COc1ccc(NC(=O)[C@H](CCCCN)NC(=O)c2cc(NC(=O)[C@H](CCCCN)NC(=O)c3cc(NC(=O)[C@H](CCCCN)NC(=O)c4cc(NC(=O)[C@H](CCCCN)NC(=O)CCC(=O)O)ccc4OC)ccc3OC)ccc2OC)cc1C(N)=O` [Compound 339], the EC50 in assay [1] was 910 nM; in assay [2], 1900 nM; in assay [3], 272 nM; in assay [4], 235 nM.

As to `COc1ccc(NC(=O)[C@H](CCCCN)NC(=O)c2cc(NC(=O)[C@H](CCCCN)NC(=O)c3cc(NC(=O)[C@H](CCCCN)NC(=O)c4cc(NC(=O)[C@H](CCCCN)NC(=O)c5cccc(C(=O)O)c5)ccc4OC)ccc3OC)ccc2OC)cc1C(N)=O` [Compound 342], the EC50 in assay [1] was 2350 nM; in assay [2], 167 nM; in assay [3], 153 nM; in assay [4], 147 nM.
